Measurements as given in US9266876B2 (Actelion Pharmaceuticals Ltd., priority 2012, dated 2016).

Tests used:
[1] = target: human CXCR3A (Homo sapiens (Human), UniProt P49682); assay: FLIPR assay; type: cell-based; settings: CHO-K1 cells expressing the human CXCR3A coupled to Galpha(16); CXCL10 agonist 20 nM; Fluo-4-AM fluorescence; mean values if determined several times
Method in brief: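 CHO-K1 cells expressing CXCR3A coupled to Gα16 were loaded with Fluo-4-AM for 1 h in Hepes-buffered HBSS, pH 7.4, with 5 mM probenecid. Compound dilutions were added on the FLIPR, followed by CXCL10 (added as a 20 nM solution). Baseline-subtracted peak fluorescence was fitted to a single-site curve for IC50.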

[2] = target: CXCR3 (Homo sapiens (Human), UniProt P49682); assay: Receptor internalization assay; type: cell-based; settings: human whole blood; final CXCL10 concentration 9 nM; 30 min 37° C.; CXCR3 cell surface expression on CD3 positive cells, flow cytometer; read-out: Internalization IC50
CXCR3, sequence (P49682 whole entry): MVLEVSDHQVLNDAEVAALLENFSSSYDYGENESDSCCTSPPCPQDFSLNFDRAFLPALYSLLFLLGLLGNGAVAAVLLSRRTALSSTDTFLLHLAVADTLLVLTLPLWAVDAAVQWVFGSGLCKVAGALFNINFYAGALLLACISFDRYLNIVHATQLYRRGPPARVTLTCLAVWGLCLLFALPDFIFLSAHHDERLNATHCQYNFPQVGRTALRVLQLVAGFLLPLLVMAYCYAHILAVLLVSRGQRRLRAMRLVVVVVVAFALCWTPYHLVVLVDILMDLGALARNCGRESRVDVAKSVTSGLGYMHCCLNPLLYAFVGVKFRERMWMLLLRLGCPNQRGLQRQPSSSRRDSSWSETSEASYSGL
Method: B): Receptor Internalization Assay:
Stock solutions of test compounds are made up at a concentration of 10 mM in DMSO, and serially diluted in PBS containing 0.5% BSA to concentrations required for inhibition dose response curves. Diluted compounds are then mixed with an equal volume of CXCL10 (Peprotech) diluted in PBS. Anticoagulated venous human whole blood is added to the mixture, which is then incubated in a CO2 incubator at 37° C. to allow for ligand mediated receptor internalization (final CXCL10 concentration is 9 nM). After 30′, the blood is mixed with fluorescently labeled CXCR3 and CD3 specific antibodies (Becton Dickinson) and incubated on ice for 10 minutes. Samples are then mixed with BD FACS Lysing Solution (Becton Dickinson) in order to eliminate red blood cells. After washing the cells with PBS containing 0.5% BSA, the samples are then analyzed in a flow cytometer (FACS Canto II, Becton Dickinson). For data analysis using FACSDiva software (Becton Dickinson), the mean fluorescence corresponding to CXCR3 cell surface expression was determined on CD3 positive cells. The program GraphPad Prism is used to fit the data to a single site dose response curve and to calculate IC50 values.

human CXCR3A, sequence (P49682 whole entry): as above

SMILES	IC50 [1]	IC50 [2]
O=C(Cn1cnc2cccnc21)N1CCN(c2scnc2-c2nc3ccccc3[nH]2)CC1 [Example 14, 1-{4-[4-(1H-Benzoimidazol-2-yl)-thiazol-5-yl]-piperazin-1-yl}-2-imidazo[4,5-b]pyridin-3-yl-ethanone]	11 nM	1800 nM
O=C(Cn1ccc2cccnc21)N1CCN(c2scnc2-c2nc3ccccc3[nH]2)CC1 [Example 15, 1-{4-[4-(1H-Benzoimidazol-2-yl)-thiazol-5-yl]-piperazin-1-yl}-2-pyrrolo[2,3-b]pyridin-1-yl-ethanone]	14 nM	2420 nM
C[C@@H]1CN(c2scnc2-c2nc3ccccc3[nH]2)CCN1C(=O)Cn1cnc2cccnc21 [Example 17, 1-{(R)-4-[4-(1H-Benzoimidazol-2-yl)-thiazol-5-yl]-2-methyl-piperazin-1-yl}-2-imidazo[4,5-b]pyridin-3-yl-ethanone]	6 nM	447 nM
CC[C@@H]1CN(c2scnc2-c2nc3ccccc3[nH]2)CCN1C(=O)Cn1ccc2cccnc21 [Example 18, 1-{(R)-4-[4-(1H-Benzoimidazol-2-yl)-thiazol-5-yl]-2-ethyl-piperazin-1-yl}-2-pyrrolo[2,3-b]pyridin-1-yl-ethanone]	1 nM	2420 nM
COC[C@H]1CN(c2scnc2-c2nc3ccccc3[nH]2)CCN1C(=O)Cn1ccc2cccnc21 [Example 19, 1-{(R)-4-[4-(1H-Benzoimidazol-2-yl)-thiazol-5-yl]-2-methoxymethyl-piperazin-1-yl}-2-pyrrolo[2,3-b]pyridin-1-yl-ethanone]	25 nM	875 nM
Cc1cccc2[nH]c(-c3ncsc3N3CCN(C(=O)Cn4ccc5cccnc54)[C@H](C)C3)nc12 [Example 22, 1-{(R)-2-Methyl-4-[4-(4-methyl-1H-benzoimidazol-2-yl)-thiazol-5-yl]-piperazin-1-yl}-2-pyrrolo[2,3-b]pyridin-1-yl-ethanone]	1 nM	568 nM
C[C@@H]1CN(c2scnc2-c2nc3ccc(Cl)cc3[nH]2)CCN1C(=O)Cn1ccc2cccnc21 [Example 23, 1-{(R)-4-[4-(6-Chloro-1H-benzoimidazol-2-yl)-thiazol-5-yl]-2-methyl-piperazin-1-yl}-2-pyrrolo[2,3-b]pyridin-1-yl-ethanone]	0.2 nM	181 nM
C[C@@H]1CN(c2scnc2-c2nc3ccc(C(C)(C)C)cc3[nH]2)CCN1C(=O)Cn1ccc2cccnc21 [Example 24, 1-{(R)-4-[4-(6-tert-Butyl-1H-benzoimidazol-2-yl)-thiazol-5-yl]-2-methyl-piperazin-1-yl}-2-pyrrolo[2,3-b]pyridin-1-yl-ethanone]	1 nM	215 nM
C[C@@H]1CN(c2scnc2-c2nc3cc(S(C)(=O)=O)ccc3[nH]2)CCN1C(=O)Cn1ccc2cccnc21 [Example 25, 1-{(R)-4-[4-(5-Methanesulfonyl-1H-benzoimidazol-2-yl)-thiazol-5-yl]-2-methyl-piperazin-1-yl}-2-pyrrolo[2,3-b]pyridin-1-yl-ethanone]	3 nM	3140 nM
Cc1cc2[nH]c(-c3ncsc3N3CCN(C(=O)Cn4ccc5cccnc54)[C@H](C)C3)nc2cc1Cl [Example 27, 1-{(R)-4-[4-(5-Chloro-6-methyl-1H-benzoimidazol-2-yl)-thiazol-5-yl]-2-methyl-piperazin-1-yl}-2-pyrrolo[2,3-b]pyridin-1-yl-ethanone]	3 nM	314 nM
COc1cccc2nc(-c3ncsc3N3CCN(C(=O)Cn4c(=O)n(C)c5ccccc54)CC3)[nH]c12 [Example 30, 1-(2-{4-[4-(7-Methoxy-1H-benzoimidazol-2-yl)-thiazol-5-yl]-piperazin-1-yl}-2-oxo-ethyl)-3-methyl-1,3-dihydro-benzoimidazol-2-one]	2 nM	566 nM
Cc1ccc2[nH]c(-c3ncsc3N3CCN(C(=O)Cn4c(=O)n(C)c5ccccc54)CC3)nc2c1 [Example 31, 1-Methyl-3-(2-{4-[4-(5-methyl-1H-benzoimidazol-2-yl)-thiazol-5-yl]-piperazin-1-yl}-2-oxo-ethyl)-1,3-dihydro-benzoimidazol-2-one]	2 nM	540 nM
Cn1c(=O)n(CC(=O)N2CCN(c3scnc3-c3nc4cc(C(F)(F)F)ccc4[nH]3)CC2)c2ccccc21 [Example 32, 1-Methyl-3-(2-oxo-2-{4-[4-(5-trifluoromethyl-1H-benzoimidazol-2-yl)-thiazol-5-yl]-piperazin-1-yl}-ethyl)-1,3-dihydro-benzoimidazol-2-one]	2 nM	633 nM
Cn1c(=O)n(CC(=O)N2CCN(c3scnc3-c3nc4cc(Cl)c(Cl)cc4[nH]3)CC2)c2ccccc21 [Example 35, 1-(2-{4-[4-(5,6-Dichloro-1H-benzoimidazol-2-yl)-thiazol-5-yl]-piperazin-1-yl}-2-oxo-ethyl)-3-methyl-1,3-dihydro-benzoimidazol-2-one]	3 nM	1510 nM
Cc1c(Cl)ccc2nc(-c3ncsc3N3CCN(C(=O)Cn4c(=O)n(C)c5ccccc54)CC3)[nH]c12 [Example 37, 1-(2-{4-[4-(6-Chloro-7-methyl-1H-benzoimidazol-2-yl)-thiazol-5-yl]-piperazin-1-yl}-2-oxo-ethyl)-3-methyl-1,3-dihydro-benzoimidazol-2-one]	4 nM	1490 nM
O=C(Cn1ccc2cccnc21)N1CCN(c2sc(Br)nc2-c2nc3ccccc3[nH]2)CC1 [Example 38, 1-{4-[4-(1H-Benzoimidazol-2-yl)-2-bromo-thiazol-5-yl]-piperazin-1-yl}-2-pyrrolo[2,3-b]pyridin-1-yl-ethanone]	3 nM	1580 nM
CCc1nc(-c2nc3ccccc3[nH]2)c(N2CCN(C(=O)Cn3ccc4cccnc43)CC2)s1 [Example 39, 1-{4-[4-(1H-Benzoimidazol-2-yl)-2-ethyl-thiazol-5-yl]-piperazin-1-yl}-2-pyrrolo[2,3-b]pyridin-1-yl-ethanone]	15 nM	5880 nM
O=C(Cn1ccc2cccnc21)N1CCCN(c2scnc2-c2nc3ccccc3[nH]2)CC1 [Example 44, 1-{4-[4-(1H-Benzoimidazol-2-yl)-thiazol-5-yl]-[1,4]diazepan-1-yl}-2-pyrrolo[2,3-b]pyridin-1-yl-ethanone]	3 nM	3900 nM
CC[C@@H]1CN(c2scnc2-c2nc3ccccc3[nH]2)CCN1C(=O)Cn1cnc2cccnc21 [Example 49, 1-{(R)-4-[4-(1H-Benzoimidazol-2-yl)-thiazol-5-yl]-2-ethyl-piperazin-1-yl}-2-imidazo[4,5-b]pyridin-3-yl-ethanone]	4 nM	851 nM
C[C@@H]1CN(c2sc(C(F)(F)F)nc2-c2nc3ccccc3[nH]2)CCN1C(=O)Cn1cnc2cccnc21 [Example 51, 1-{(R)-4-[4-(1H-Benzoimidazol-2-yl)-2-trifluoromethyl-thiazol-5-yl]-2-methyl-piperazin-1-yl}-2-imidazo[4,5-b]pyridin-3-yl-ethanone]	1 nM	66 nM
O=C(Cn1ccc2cc(F)ccc21)N1CCN(c2scnc2-c2nc3ccccc3[nH]2)CC1 [Example 55, 1-{4-[4-(1 H-Benzoimidazol-2-yl)-thiazol-5-yl]-piperazin-1-yl}-2-(5-fluoro-indol-1-yl)-ethanone]	4 nM	1660 nM
Cc1cccc2ccn(CC(=O)N3CCN(c4scnc4-c4nc5ccccc5[nH]4)CC3)c12 [Example 57, 1-{4-[4-(1H-Benzoimidazol-2-yl)-thiazol-5-yl]-piperazin-1-yl}-2-(7-methyl-indol-1-yl)-ethanone]	2 nM	4130 nM
O=C(Cn1ccc2c(Cl)cccc21)N1CCN(c2scnc2-c2nc3ccccc3[nH]2)CC1 [Example 60, 1-{4-[4-(1H-Benzoimidazol-2-yl)-thiazol-5-yl]-piperazin-1-yl}-2-(4-chloro-indol-1-yl)-ethanone]	8 nM	1400 nM
N#Cc1cccc2ccn(CC(=O)N3CCN(c4scnc4-c4nc5ccccc5[nH]4)CC3)c12 [Example 61, 1-(2-{4-[4-(1H-Benzoimidazol-2-yl)-thiazol-5-yl]-piperazin-1-yl}-2-oxo-ethyl)-1H-indole-7-carbonitrile]	2 nM	458 nM
O=C(Cn1ccc2ccc(Cl)nc21)N1CCN(c2scnc2-c2nc3ccccc3[nH]2)CC1 [Example 65, 1-{4-[4-(1H-Benzoimidazol-2-yl)-thiazol-5-yl]-piperazin-1-yl}-2-(6-chloro-pyrrolo[2,3-b]pyridin-1-yl)-ethanone]	3 nM	816 nM
O=C(CN1C(=O)Cc2ccccc21)N1CCN(c2scnc2-c2nc3ccccc3[nH]2)CC1 [Example 68, 1-(2-{4-[4-(1H-Benzoimidazol-2-yl)-thiazol-5-yl]-piperazin-1-yl}-2-oxo-ethyl)-1,3-dihydro-indol-2-one]	8 nM	749 nM
